Measurements from patent publication US20240101576A1, “HETEROCYCLIC INHIBITORS OF EGFR AND/OR HER2, FOR USE IN THE TREATMENT OF CANCER” (Scorpion Therapeutics, Inc., priority 2020, published 2024).

Assays:
Assay type in all cases: cell-based
[1] = target: T1, EGFR exon 20 ASV Ins V769_D770 (Ba/F3 cells) (Homo sapiens, UniProt P00533, INS769ASV); experiment: Inhibitor activity on EGFR-dependent cell growth (CellTiter-Glo, 72 h), Ba/F3 EGFR exon 20 ASV Ins; conditions: read-out: BaF3 ASV IC50
T1 construct: expressed in transfected cells; host or cells: Ba/F3 (murine pro-B cells), retroviral transduction, puromycin selection, IL3-independent pool
T1 sequence (P00533 with tags, fused parts or gaps INS769ASV): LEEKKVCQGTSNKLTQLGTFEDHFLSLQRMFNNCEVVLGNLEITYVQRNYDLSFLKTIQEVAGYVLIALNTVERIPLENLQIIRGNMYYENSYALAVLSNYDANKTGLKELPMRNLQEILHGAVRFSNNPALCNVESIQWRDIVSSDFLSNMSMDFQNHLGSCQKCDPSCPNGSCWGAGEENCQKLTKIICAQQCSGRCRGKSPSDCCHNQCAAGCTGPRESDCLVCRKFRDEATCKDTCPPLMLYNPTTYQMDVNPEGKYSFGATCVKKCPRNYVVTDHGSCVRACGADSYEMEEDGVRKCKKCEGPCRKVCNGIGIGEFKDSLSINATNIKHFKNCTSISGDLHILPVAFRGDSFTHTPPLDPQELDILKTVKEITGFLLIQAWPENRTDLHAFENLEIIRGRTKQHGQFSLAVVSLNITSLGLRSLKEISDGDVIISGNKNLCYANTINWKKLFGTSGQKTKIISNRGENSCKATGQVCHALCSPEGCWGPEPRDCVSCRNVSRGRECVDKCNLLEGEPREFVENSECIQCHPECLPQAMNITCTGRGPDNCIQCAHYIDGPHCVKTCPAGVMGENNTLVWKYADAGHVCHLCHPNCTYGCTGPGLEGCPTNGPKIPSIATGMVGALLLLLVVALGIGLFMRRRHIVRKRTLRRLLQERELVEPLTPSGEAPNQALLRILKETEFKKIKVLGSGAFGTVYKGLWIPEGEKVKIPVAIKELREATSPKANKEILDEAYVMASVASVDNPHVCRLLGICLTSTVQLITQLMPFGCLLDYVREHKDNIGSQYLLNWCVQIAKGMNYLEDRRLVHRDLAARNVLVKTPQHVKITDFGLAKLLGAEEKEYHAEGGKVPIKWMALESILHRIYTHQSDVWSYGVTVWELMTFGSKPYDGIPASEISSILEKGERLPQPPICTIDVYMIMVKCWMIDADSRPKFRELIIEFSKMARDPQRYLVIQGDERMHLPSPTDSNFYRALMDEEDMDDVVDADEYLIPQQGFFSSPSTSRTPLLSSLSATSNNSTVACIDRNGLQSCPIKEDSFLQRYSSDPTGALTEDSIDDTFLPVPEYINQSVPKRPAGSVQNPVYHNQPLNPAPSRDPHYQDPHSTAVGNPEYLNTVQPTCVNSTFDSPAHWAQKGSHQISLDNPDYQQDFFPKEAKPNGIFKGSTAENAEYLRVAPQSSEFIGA
In short: (§1)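 IC50s derive from a sigmoidal dose–response fit of CellTiter-Glo signal. The signal was normalised between […]-treated cells and cell-free medium. Ba/F3 mutant-EGFR cells, seeded at 400–800/well depending on the line, had 72 h of exposure to a 10-point, 3-fold compound series.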

[2] = target: T2, EGFR exon 20 SVD Ins D770_N771 (Ba/F3 cells) (Homo sapiens, UniProt P00533, INS770SVD); experiment: Inhibitor activity on EGFR-dependent cell growth (CellTiter-Glo, 72 h), Ba/F3 EGFR exon 20 SVD Ins; conditions: read-out: BaF3 SVD IC50
T2 construct: expressed in transfected cells; host or cells: Ba/F3 (murine pro-B cells), retroviral transduction, puromycin selection, IL3-independent pool
T2 sequence (P00533 with tags, fused parts or gaps INS770SVD): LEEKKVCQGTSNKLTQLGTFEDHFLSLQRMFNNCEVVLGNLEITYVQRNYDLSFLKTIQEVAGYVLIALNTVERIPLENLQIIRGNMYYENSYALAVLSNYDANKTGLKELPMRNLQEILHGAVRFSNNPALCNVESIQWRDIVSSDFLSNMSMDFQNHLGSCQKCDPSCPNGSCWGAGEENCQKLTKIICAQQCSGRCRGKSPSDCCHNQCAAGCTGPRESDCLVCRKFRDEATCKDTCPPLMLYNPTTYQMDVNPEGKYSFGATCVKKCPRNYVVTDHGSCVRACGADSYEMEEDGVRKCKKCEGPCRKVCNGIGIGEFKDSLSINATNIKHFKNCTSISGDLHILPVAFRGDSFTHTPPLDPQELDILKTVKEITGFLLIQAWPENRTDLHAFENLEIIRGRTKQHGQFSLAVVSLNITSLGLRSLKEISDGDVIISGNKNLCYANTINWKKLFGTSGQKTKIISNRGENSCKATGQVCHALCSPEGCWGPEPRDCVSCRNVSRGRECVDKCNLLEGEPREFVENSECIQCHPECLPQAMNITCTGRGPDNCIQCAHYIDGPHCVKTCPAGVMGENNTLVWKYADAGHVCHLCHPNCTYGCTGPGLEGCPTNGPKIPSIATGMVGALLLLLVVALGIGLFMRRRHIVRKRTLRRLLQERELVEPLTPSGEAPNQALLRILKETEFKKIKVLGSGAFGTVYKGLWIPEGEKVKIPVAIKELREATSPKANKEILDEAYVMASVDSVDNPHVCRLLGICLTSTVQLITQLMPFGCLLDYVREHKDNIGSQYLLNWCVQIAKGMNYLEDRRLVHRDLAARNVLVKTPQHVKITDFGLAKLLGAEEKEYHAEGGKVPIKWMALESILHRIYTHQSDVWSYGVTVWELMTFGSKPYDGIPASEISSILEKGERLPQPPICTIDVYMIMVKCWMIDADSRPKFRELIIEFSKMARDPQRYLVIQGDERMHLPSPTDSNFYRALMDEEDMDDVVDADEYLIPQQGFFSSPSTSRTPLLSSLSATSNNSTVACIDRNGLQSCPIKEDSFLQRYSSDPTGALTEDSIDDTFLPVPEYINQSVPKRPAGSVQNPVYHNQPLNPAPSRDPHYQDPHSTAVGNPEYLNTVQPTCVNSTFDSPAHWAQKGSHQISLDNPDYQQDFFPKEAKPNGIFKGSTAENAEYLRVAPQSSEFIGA
In short: as §1

[3] = target: T3, EGFR WT (Ba/F3 cells) (Homo sapiens, UniProt P00533); experiment: Inhibitor activity on EGFR-dependent cell growth (CellTiter-Glo, 72 h), Ba/F3 EGFR WT; conditions: read-out: BaF3 WT IC50
T3 construct: expressed in transfected cells; host or cells: Ba/F3 (murine pro-B cells), retroviral transduction, puromycin selection, maintained with EGF
T3 sequence (P00533 25-1210): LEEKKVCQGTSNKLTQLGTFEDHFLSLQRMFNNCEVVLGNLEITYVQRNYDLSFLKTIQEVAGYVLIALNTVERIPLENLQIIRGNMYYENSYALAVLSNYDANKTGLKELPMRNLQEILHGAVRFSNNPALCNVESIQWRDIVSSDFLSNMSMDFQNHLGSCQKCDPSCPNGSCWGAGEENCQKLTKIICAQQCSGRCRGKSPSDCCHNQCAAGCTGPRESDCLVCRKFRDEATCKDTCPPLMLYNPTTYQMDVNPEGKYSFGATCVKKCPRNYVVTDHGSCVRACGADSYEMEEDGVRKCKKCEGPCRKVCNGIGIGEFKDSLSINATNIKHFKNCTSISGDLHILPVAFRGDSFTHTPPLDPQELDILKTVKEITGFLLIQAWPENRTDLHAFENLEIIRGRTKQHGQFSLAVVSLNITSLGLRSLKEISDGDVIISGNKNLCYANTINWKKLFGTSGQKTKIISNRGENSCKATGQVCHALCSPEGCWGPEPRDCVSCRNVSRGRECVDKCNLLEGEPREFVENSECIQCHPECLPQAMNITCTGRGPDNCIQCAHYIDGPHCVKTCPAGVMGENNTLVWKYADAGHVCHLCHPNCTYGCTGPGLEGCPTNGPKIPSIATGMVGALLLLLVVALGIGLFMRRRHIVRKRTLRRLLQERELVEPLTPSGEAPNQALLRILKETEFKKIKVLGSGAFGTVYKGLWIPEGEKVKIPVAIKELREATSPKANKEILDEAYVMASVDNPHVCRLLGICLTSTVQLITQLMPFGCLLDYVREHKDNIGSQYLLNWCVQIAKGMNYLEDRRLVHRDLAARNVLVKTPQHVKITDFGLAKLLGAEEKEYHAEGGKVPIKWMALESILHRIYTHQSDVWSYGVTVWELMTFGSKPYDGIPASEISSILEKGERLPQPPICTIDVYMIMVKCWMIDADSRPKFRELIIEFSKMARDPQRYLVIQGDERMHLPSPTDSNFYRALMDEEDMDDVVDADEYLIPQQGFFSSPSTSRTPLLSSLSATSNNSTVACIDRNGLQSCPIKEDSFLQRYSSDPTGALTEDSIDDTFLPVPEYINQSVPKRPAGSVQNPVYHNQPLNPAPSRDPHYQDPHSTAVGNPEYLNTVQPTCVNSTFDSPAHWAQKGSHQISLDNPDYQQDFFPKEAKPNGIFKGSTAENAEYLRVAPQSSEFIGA
In short: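 This growth assay used Ba/F3 cells that depend on wild-type EGFR and are kept in EGF without IL3. Compounds were made up as 10 mM DMSO stocks and diluted 3-fold over 10 points. 120 nL went onto 600 cells/well. After 72 hours, 40 μL CellTiter-Glo was added and luminescence read on EnVision after 30 min.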

[4] = target: T4, EGFR exon 20 FQEA Ins A763_V764 (Ba/F3 cells) (Homo sapiens, UniProt P00533, INS763FQEA); experiment: Inhibitor activity on EGFR-dependent cell growth (CellTiter-Glo, 72 h), Ba/F3 EGFR exon 20 FQEA Ins; conditions: read-out: BaF3 FQEA IC50
T4 construct: expressed in transfected cells; host or cells: Ba/F3 (murine pro-B cells), retroviral transduction, puromycin selection, IL3-independent pool
T4 sequence (P00533 with tags, fused parts or gaps INS763FQEA): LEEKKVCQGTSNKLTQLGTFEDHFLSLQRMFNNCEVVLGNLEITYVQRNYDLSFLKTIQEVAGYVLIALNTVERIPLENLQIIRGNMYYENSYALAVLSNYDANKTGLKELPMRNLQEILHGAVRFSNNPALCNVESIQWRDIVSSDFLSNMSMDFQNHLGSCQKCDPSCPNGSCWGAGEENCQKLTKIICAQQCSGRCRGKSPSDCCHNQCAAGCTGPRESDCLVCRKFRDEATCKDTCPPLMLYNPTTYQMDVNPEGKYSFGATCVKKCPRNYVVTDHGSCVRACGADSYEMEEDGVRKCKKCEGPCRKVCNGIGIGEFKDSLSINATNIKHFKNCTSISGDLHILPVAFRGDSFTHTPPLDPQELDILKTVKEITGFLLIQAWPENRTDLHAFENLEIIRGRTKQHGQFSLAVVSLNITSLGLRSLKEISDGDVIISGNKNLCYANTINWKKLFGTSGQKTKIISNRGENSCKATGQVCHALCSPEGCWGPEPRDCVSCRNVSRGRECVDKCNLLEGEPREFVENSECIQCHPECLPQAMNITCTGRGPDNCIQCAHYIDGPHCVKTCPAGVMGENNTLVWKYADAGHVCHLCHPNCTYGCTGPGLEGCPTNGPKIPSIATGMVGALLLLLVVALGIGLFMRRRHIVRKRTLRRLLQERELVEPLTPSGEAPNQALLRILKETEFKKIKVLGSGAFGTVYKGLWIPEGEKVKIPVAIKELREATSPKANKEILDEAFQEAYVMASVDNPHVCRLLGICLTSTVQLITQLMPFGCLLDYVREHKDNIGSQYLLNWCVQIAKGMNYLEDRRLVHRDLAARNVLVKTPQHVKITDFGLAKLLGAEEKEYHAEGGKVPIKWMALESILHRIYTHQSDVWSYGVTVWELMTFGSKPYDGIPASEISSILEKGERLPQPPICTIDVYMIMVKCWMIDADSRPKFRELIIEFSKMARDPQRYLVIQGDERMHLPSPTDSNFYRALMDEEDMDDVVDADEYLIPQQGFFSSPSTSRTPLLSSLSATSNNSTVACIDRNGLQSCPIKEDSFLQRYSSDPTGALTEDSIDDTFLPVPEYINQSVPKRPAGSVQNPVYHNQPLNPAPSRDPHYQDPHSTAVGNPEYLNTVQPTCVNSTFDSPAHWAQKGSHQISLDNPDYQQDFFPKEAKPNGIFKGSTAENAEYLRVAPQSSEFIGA
In short: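 72 h proliferation, Ba/F3 EGFR mutants (no IL3, puromycin-selected pools, EGFR confirmed by Western blot). Seeding of 400 L858R, 600 L858R/C797S and 800 exon 19del/FQEA cells per well. CellTiter-Glo used; controls were […] (high) and medium alone (low).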

## COc1c(Cl)cccc1Nc1c(-c2ccnc(Nc3ccc(N4CCN(C)CC4)nc3)n2)[nH]c2c1C(=O)NCC2 [compound 518, 3-[(3-chloro-2-methoxyphenyl)amino]-2-(2-{[6-(4-methylpiperazin-1-yl)pyridin-3-yl]amino}pyrimidin-4-yl)-1H,5H,6H,7H-pyrrolo[3,2-c]pyridin-4-one]
[1]
  IC50: < 100 nM
[2]
  IC50: < 100 nM
[3]
  IC50: 100 to 1000 nM
[4]
  IC50: < 100 nM

## C=CC(=O)N1CC[C@]2(CNC(=O)c3c2[nH]c(-c2ccncc2F)c3Nc2cccc(Cl)c2OC)C1 [compound 520]
[1]
  IC50: 100 to 1000 nM
[2]
  IC50: 100 to 1000 nM
[3]
  IC50: 100 to 1000 nM
[4]
  IC50: < 100 nM

## C=CC(=O)N1CC[C@@]2(CNC(=O)c3c2[nH]c(-c2ccncc2F)c3Nc2cccc(Cl)c2OC)C1 [compound 521]
[1]
  IC50: 100 to 1000 nM
[2]
  IC50: 100 to 1000 nM
[3]
  IC50: > 1000 nM
[4]
  IC50: 100 to 1000 nM

## COc1c(Cl)cccc1Nc1c(-c2ccnc(-c3ccn(C)n3)n2)[nH]c2c1C(=O)NCC2 [compound 544, 3-[(3-chloro-2-methoxyphenyl)amino]-2-[2-(1-methylpyrazol-3-yl)pyrimidin-4-yl]-1H,5H,6H,7H-pyrrolo[3,2-c]pyridin-4-one]
[1]
  IC50: 100 to 1000 nM
[2]
  IC50: 100 to 1000 nM
[3]
  IC50: > 1000 nM
[4]
  IC50: 100 to 1000 nM

## COc1c(Cl)cccc1Nc1c(-c2ccnc3ccc(OC4CC4)nc23)[nH]c2c1C(=O)NCC2 [compound 677, 3-[(3-chloro-2-methoxyphenyl)amino]-2-(6-cyclopropoxy-1,5-naphthyridin-4-yl)-1H,5H,6H,7H-pyrrolo[3,2-c]pyridin-4-one]
[1]
  IC50: < 100 nM
[2]
  IC50: < 100 nM
[3]
  IC50: < 100 nM
[4]
  IC50: < 100 nM

## COc1c(Cl)cccc1Nc1c(-c2ccnc(NC3CCOCC3)n2)[nH]c2c1C(=O)NCC2 [compound 708, 3-((3-chloro-2-methoxyphenyl)amino)-2-(2-((tetrahydro-2H-pyran-4-yl)amino)pyrimidin-4-yl)-1,5,6,7-tetrahydro-4H-pyrrolo[3,2-c]pyridin-4-one]
[1]
  IC50: > 1000 nM
[2]
  IC50: > 1000 nM
[3]
  IC50: > 1000 nM
[4]
  IC50: > 1000 nM

## COc1c(Cl)cccc1Nc1c(-c2ccnc(NC[C@H]3CCO3)n2)[nH]c2c1C(=O)NCC2 [compound 720]
[1]
  IC50: > 1000 nM
[2]
  IC50: > 1000 nM
[3]
  IC50: > 1000 nM
[4]
  IC50: > 1000 nM

## COc1c(Cl)cccc1Nc1c(-c2ccnc(NC[C@H]3COCCO3)n2)[nH]c2c1C(=O)NCC2 [compound 723, 3-[(3-chloro-2-methoxyphenyl)amino]-2-(2-[[(2S)-1,4-dioxan-2-ylmethyl]amino]pyrimidin-4-yl)-1H,5H,6H,7H-pyrrolo[3,2-c]pyridin-4-one]
[1]
  IC50: 100 to 1000 nM
[2]
  IC50: > 1000 nM
[3]
  IC50: > 1000 nM
[4]
  IC50: > 1000 nM

## COc1c(Cl)cccc1Nc1c(-c2ccnc(NC[C@@H]3COCCO3)n2)[nH]c2c1C(=O)NCC2 [compound 724, 3-[(3-chloro-2-methoxyphenyl)amino]-2-[2-[(1,4-dioxan-2-ylmethyl)amino]pyrimidin-4-yl]-1H,5H,6H,7H-pyrrolo[3,2-c]pyridin-4-one]
[1]
  IC50: 100 to 1000 nM
[2]
  IC50: 100 to 1000 nM
[3]
  IC50: > 1000 nM
[4]
  IC50: > 1000 nM

## COc1c(Cl)cccc1Nc1c(-c2ccnc3[nH]c(=O)c(OC)nc23)[nH]c2c1C(=O)NCC2 [compound 729, 8-(3-((3-chloro-2-methoxyphenyl)amino)-4-oxo-4,5,6,7-tetrahydro-1H-pyrrolo[3,2-c]pyridin-2-yl)-2-methoxypyrido[2,3-b]pyrazin-3 (4H)-one]
[1]
  IC50: 100 to 1000 nM
[2]
  IC50: < 100 nM
[3]
  IC50: 100 to 1000 nM
[4]
  IC50: 100 to 1000 nM

## COc1c(Cl)cccc1Nc1c(-c2ccnc3ccc(OC4CCOCC4)nc23)[nH]c2c1C(=O)NCC2 [compound 740, 3-[(3-chloro-2-methoxyphenyl)amino]-2-[6-(oxan-4-yloxy)-1,5-naphthyridin-4-yl]-1H,5H,6H,7H-pyrrolo[3,2-c]pyridin-4-one]
[1]
  IC50: < 100 nM
[2]
  IC50: < 100 nM
[3]
  IC50: < 100 nM
[4]
  IC50: < 100 nM

## COc1c(Cl)cccc1Nc1c(-c2ccnc3ccc(C4CC4)nc23)[nH]c2c1C(=O)NCC2 [compound 752, 3-[(3-chloro-2-methoxyphenyl)amino]-2-(6-cyclopropyl-1,5-naphthyridin-4-yl)-1H,5H,6H,7H-pyrrolo[3,2-c]pyridin-4-one]
[1]
  IC50: < 100 nM
[2]
  IC50: < 100 nM
[3]
  IC50: < 100 nM
[4]
  IC50: < 100 nM

## COc1c(Cl)cccc1Nc1c(-c2ccnc3ccc(OCC4CC4)nc23)[nH]c2c1C(=O)NCC2 [compound 755, 3-[(3-chloro-2-methoxyphenyl)amino]-2-[6-(cyclopropylmethoxy)-1,5-naphthyridin-4-yl]-1H,5H,6H,7H-pyrrolo[3,2-c]pyridin-4-one]
[1]
  IC50: < 100 nM
[2]
  IC50: < 100 nM
[3]
  IC50: 100 to 1000 nM
[4]
  IC50: < 100 nM

## COc1c(Cl)cccc1Nc1c(-c2ccnc3ccc(OCC4CCC4)nc23)[nH]c2c1C(=O)NCC2 [compound 756, 3-[(3-chloro-2-methoxyphenyl)amino]-2-[6-(cyclobutylmethoxy)-1,5-naphthyridin-4-yl]-1H,5H,6H,7H-pyrrolo[3,2-c]pyridin-4-one]
[1]
  IC50: < 100 nM
[2]
  IC50: 100 to 1000 nM
[3]
  IC50: 100 to 1000 nM
[4]
  IC50: 100 to 1000 nM

## COc1c(Cl)cccc1Nc1c(-c2ccnc3ccc(OCC4(F)CC4)nc23)[nH]c2c1C(=O)NCC2 [compound 759, 3-[(3-chloro-2-methoxyphenyl)amino]-2-[6-[(1-fluorocyclopropyl)methoxy]-1,5-naphthyridin-4-yl]-1H,5H,6H,7H-pyrrolo[3,2-c]pyridin-4-one]
[1]
  IC50: < 100 nM
[2]
  IC50: < 100 nM
[3]
  IC50: 100 to 1000 nM
[4]
  IC50: < 100 nM

## COc1c(Cl)cccc1Nc1c(-c2ccnc3ccc(OC(C)C)nc23)[nH]c2c1C(=O)NCC2 [compound 762, 3-[(3-chloro-2-methoxyphenyl)amino]-2-(6-isopropoxy-1,5-naphthyridin-4-yl)-1H,5H,6H,7H-pyrrolo[3,2-c]pyridin-4-one]
[1]
  IC50: < 100 nM
[2]
  IC50: < 100 nM
[3]
  IC50: < 100 nM
[4]
  IC50: < 100 nM

## COc1c(Cl)cccc1Nc1c(-c2ccnc3ccc(OC4CCC4)nc23)[nH]c2c1C(=O)NCC2 [compound 768, 3-[(3-chloro-2-methoxyphenyl)amino]-2-(6-cyclobutoxy-1,5-naphthyridin-4-yl)-1H,5H,6H,7H-pyrrolo[3,2-c] pyridin-4-one]
[1]
  IC50: < 100 nM
[2]
  IC50: < 100 nM
[3]
  IC50: 100 to 1000 nM
[4]
  IC50: < 100 nM

## C=CC[C@H]1CNC(=O)c2c1[nH]c(-c1ccncc1F)c2Nc1cccc(Cl)c1OC [compound 811]
[1]
  IC50: > 1000 nM
[2]
  IC50: > 1000 nM
[3]
  IC50: > 1000 nM
[4]
  IC50: > 1000 nM

## COc1c(Cl)cccc1Nc1c(-c2ccncc2F)[nH]c2c1C(=O)NC[C@H]2CCF [compound 812]
[1]
  IC50: 100 to 1000 nM
[2]
  IC50: 100 to 1000 nM
[3]
  IC50: > 1000 nM
[4]
  IC50: 100 to 1000 nM

## COc1c(Cl)cccc1Nc1c(-c2ccncc2F)[nH]c2c1C(=O)NC[C@@H]2CCF [compound 813]
[1]
  IC50: 100 to 1000 nM
[2]
  IC50: 100 to 1000 nM
[3]
  IC50: > 1000 nM
[4]
  IC50: 100 to 1000 nM

## COc1cnc2c(-c3[nH]c4c(c3Nc3cccc(Cl)c3OC)C(=O)NCC4)ccnc2c1 [compound 814]
[1]
  IC50: < 100 nM
[2]
  IC50: < 100 nM
[3]
  IC50: < 100 nM
[4]
  IC50: < 100 nM

## COc1c(Cl)cccc1Nc1c(-c2ccncc2F)[nH]c2c1C(=O)NC[C@]21CCN(C)C1 [compound 815]
[1]
  IC50: 100 to 1000 nM
[2]
  IC50: 100 to 1000 nM
[3]
  IC50: > 1000 nM
[4]
  IC50: 100 to 1000 nM
